Data published in patent US9533969B2, “Materials and method for inhibiting replication protein A and uses thereof” (Indiana University Research and Technology Corp., priority 2010, dated 2017).

What was measured:
[1] = molecular target: Human RPA (Homo sapiens (Human), UniProt P27694); assay: EMSA of inhibition of RPA binding to ssDNA; settings: for IC50: 25 nM RPA, 34-base DNA, 4 parameter logistic fit, read-out: IC50 (μM) In vitro
Procedure: Small molecule inhibitors were obtained from ChemDiv and resuspended in DMSO. Compound TDLR-505 was independently synthesized and structure confirmed by mass spectrometry analysis. Human RPA was purified using an E. coli over expression system as previously described (7). EMSAs were performed in 20 μL reactions containing 25 nM RPA, 25 nM 5′[^32P]-labeled 34-base […] DNA as previously described (7). The final concentration of DMSO was 1%.
(§1) Referring now to TABLE 1, the in vitro IC50 was determined by EMSA analysis as described in FIG. 1A. The cellular IC50 value was determined by treating H460 cells with the indicated compounds and analyzing annexinV/PI staining as described in Methods. The in vitro and cellular data was analyzed using standard 4 parameter logistic-curve. The IC50 values and standard error of the fit were determined from this analysis.
Referring now to FIGS. 2C, D and E, EMSA analysis of compound TDLR-505, briefly, increasing concentrations of compound TDRL-505 were pre-incubated with RPA and DNA binding activity was assessed via EMSA using a 34-base ssDNA substrate. Referring now to FIG. 2D, the average and standard deviation of each point are presented. The data was fit to a standard 4 parameter logistic curve with an N=4.

[2] = test system: H460 NSCLC cell line; assay: Annexin V/PI flow cytometry, induction of cell death; format: cell-based, human; settings: H460 cells; for IC50: Homo sapiens, NCI-H460, 48 hour exposure, annexinV/PI staining, read-out: IC50 (μM) Cellular
Procedure: H460 cells were analyzed for apoptosis using an Annexin V-FITC/Propidium iodide (PI) Vybrant Apoptosis Assay Kit (Invitrogen), according to manufacturer's instructions. Cells were plated at a density of 1×10^4 cells per cm^2 and allowed to adhere for 24 hours and then treated with compound TDLR-505 for 48 hours. Following plating and treatment of H460 cells as described above, adherent and non-adherent cells were collected, processed, and analyzed on a BD FACScan flow cytometer. Data was analyzed using WinMDI software (http://facs.scripps.edu/software.html). Cell cycle analysis was performed by PI staining Briefly, cells were plated and treated with compound collected and then washed twice with PBS-EDTA supplemented with 1% BSA. Cells were fixed in 70% EtOH at −20° C. while vortexing followed by incubation on ice for 30 minutes. Cells were then collected and stained with PI solution (10 μg/mL PI and 25 μg/mL RNaseA in PBS-EDTA supplemented with 1% BSA). Cells were analyzed on a Becton Dickinson FACScan flow cytometer. Cells were gated and analyzed on a histogram with events plotted against the FL2-A parameter. Cell cycle distribution was analyzed using ModFit software. G2 arrest was induced by treatment with 0.8 μg/mL nocodazole for 12 hours (10). Cells were then washed with PBS and treated with either vehicle or compound TDLR-505 (100 μM). Cells were harvested and analyzed for cell cycle distribution as described above.
as §1
Referring now to FIGS. 4A, 4B, 4C and 4D, the effects of compound TDRL-505 on induction of cell death and cell cycle progression in a H460 NSCLC cell line was measured. Briefly, H460 cells were treated with compound TDRL-505 for 48 hours and analyzed for cell viability via staining with AnnexinV/PI and presented as dot plots (see FIG. 3A). Referring now to FIG. 4B, the data from FIG. 4A was quantified and the percentage of Annexin-/PI-cells (lower left quadrant), indicating live cells, was calculated. The average±SD (N=4) are presented and the data was fit to a 4-parameter logistic curve.

Chain of Human RPA (P27694 whole entry): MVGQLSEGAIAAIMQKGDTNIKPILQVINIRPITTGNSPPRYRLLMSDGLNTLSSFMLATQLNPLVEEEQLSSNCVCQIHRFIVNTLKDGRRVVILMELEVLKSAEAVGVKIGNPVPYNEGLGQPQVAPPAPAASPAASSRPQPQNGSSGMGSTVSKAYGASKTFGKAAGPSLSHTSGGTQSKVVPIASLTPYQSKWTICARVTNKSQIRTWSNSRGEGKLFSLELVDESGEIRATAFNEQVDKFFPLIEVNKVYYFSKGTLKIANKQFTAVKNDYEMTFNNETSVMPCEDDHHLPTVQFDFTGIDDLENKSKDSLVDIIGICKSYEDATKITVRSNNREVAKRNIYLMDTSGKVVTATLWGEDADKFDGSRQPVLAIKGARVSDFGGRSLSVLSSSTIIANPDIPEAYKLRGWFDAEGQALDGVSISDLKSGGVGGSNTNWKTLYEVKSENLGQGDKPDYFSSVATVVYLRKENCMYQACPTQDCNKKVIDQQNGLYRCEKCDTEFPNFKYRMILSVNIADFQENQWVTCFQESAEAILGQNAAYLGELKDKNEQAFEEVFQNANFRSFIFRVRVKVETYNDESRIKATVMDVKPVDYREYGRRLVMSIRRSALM
Chain of Human RPA (P15927 whole entry partner): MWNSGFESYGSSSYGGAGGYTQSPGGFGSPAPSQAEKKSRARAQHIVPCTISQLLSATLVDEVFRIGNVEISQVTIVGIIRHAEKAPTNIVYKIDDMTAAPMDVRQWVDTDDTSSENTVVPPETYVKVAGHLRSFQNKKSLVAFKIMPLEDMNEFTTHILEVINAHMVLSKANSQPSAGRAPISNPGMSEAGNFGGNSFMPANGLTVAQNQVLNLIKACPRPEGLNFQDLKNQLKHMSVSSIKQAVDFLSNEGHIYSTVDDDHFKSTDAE
Chain of Human RPA (P35244 whole entry partner): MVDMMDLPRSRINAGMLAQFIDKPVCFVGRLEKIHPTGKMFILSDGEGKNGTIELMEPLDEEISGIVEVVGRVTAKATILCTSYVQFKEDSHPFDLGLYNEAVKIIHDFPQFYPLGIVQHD

SMILES	IC50 [1] [µM]	IC50 [2] [µM]	inhibition at 100 µM ([1]; 100 μM, read-out: inhibition at the highest concentration tested) [%]	inhibition of RPA DNA binding (in words) ([1]; full length RPA heterotrimer)	cellular activity (in words) [2]
COc1ccc(C2=NN(C(=O)CCC(=O)O)C(c3cn(-c4ccccc4)nc3-c3ccc(C)cc3)C2)cc1 (stereo not drawn) [TDRL-521]	71.7 ± 33.9	56.9 ± 6.7			
Cc1ccc(-c2nn(-c3ccccc3)cc2C2CC(c3ccc(Br)cc3)=NN2C(=O)CCC(=O)O)cc1 (stereo not drawn) [TDRL-522]	56.1 ± 6.7	38 ± 32			
COc1ccc(-c2nn(-c3ccccc3)cc2C2CC(c3ccc(Br)cc3)=NN2C(=O)CCC(=O)O)cc1 (stereo not drawn) [TDRL-523]	> 100	31 ± 5.2	36	minimal inhibition	modest cellular activity
